Measured values published in patent publication EP0326331B1, “Substituted quinolines and cinnolines” (Dow AgroSciences LLC, priority 1988, dated 1989).
Like-named read-outs stand apart in the source and are kept apart here.

Experiments:
Format in all cases: in vivo
[1] = test system: Pseudoperonospora cubensis (downy mildew); assay: Test 1 greenhouse foliar spray screen, downy mildew on squash; conditions: for pest or weed control at 400 ppm: Pseudoperonospora cubensis, foliar, Test 1, foliar spray on squash, disease control rating at 400 ppm / 100 ppm, read-out: DOWN MDEW; for DOWN MDEW: disease control rating, foliar spray on squash, 400 ppm (+++ at 100 ppm)
[2] = test system: Septoria tritici (leaf blotch); assay: Test 1 greenhouse foliar spray screen, leaf blotch on wheat; conditions: for pest or weed control at 400 ppm: Zymoseptoria tritici, Test 1, foliar spray on wheat, disease control rating at 400 ppm / 100 ppm, read-out: LEAF BLOT; for LEAF BLOT: disease control rating, foliar spray on wheat, 400 ppm (+++ at 100 ppm)
[3] = test system: Cercospora beticola (leaf spot); assay: Test 1 greenhouse foliar spray screen, leaf spot on sugar beet; conditions: for pest or weed control at 400 ppm: Cercospora beticola, Test 1, foliar spray on sugar beet, disease control rating at 400 ppm / 100 ppm; for LEAF SPOT: disease control rating, foliar spray on sugar beet, 400 ppm (+++ at 100 ppm)
[4] = test system: Botrytis cinerea (gray mold); assay: Test 1 greenhouse foliar spray screen, gray mold on grape berries; conditions: for pest or weed control at 400 ppm: Botrytis cinerea, foliar, Test 1, spray on grape berries, disease control rating at 400 ppm / 100 ppm; for GRAY MOLD: disease control rating, spray on grape berries, 400 ppm (+++ at 100 ppm)
[5] = test system: southern armyworm (Spodopetra eridania Cramer); assay: Mite/insect screen, SAW; conditions: Spodoptera eridania, percent mortality, read-out: SAW RESULTS %
Procedure, shortened: (§1)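 Read-out: percent mortality after standard exposure periods. Test solutions were water dilutions of compound dissolved in acetone/alcohol (50:50) with emulsifier blends; leaves were sprayed to runoff on both surfaces and air-dried for one hour before exposure.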

[6] = test system: melon aphids (Aphis gossypii Glover); assay: Mite/insect screen, MA; conditions: Aphis gossypii, percent mortality, read-out: MA RESULTS %
Procedure, shortened: as §1

[7] = test system: Erysiphe graminis tritici (powdery mildew); assay: Test 1 greenhouse foliar spray screen, powdery mildew on wheat; conditions: for pest or weed control at 400 ppm: Blumeria graminis, foliar, Test 1, foliar spray on wheat, disease control rating at 400 ppm / 100 ppm, read-out: POWD MDEW; for POWD MDEW: disease control rating, foliar spray on wheat, 400 ppm (+++ at 100 ppm)
[8] = test system: Venturia inaequalis (apple scab); assay: Test 1 greenhouse foliar spray screen, apple scab on apple seedling; conditions: for pest or weed control at 400 ppm: Venturia inaequalis, Test 1, foliar spray on apple seedling, disease control rating at 400 ppm / 100 ppm, read-out: APPL SCAB; for APPL SCAB: disease control rating, foliar spray on apple seedling, 400 ppm (+++ at 100 ppm)
[9] = test system: Twospotted spider mites (Tetranychus urticae Koch); assay: Mite/insect screen, SM; conditions: for mortality at 200 ppm / mortality at 400 ppm: Tetranychus urticae, percent mortality, read-out: SM RESULTS %; for activity as miticides: summary statement in the description
Procedure, shortened: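 Foliar spray to runoff (10 psi), 1 h drying; aqueous dilutions from acetone/alcohol emulsifier stock. Mortality (%) after standard exposure.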

[10] = test system: Pyricularia oryzae (rice blast); assay: whole plant or invertebrate; conditions: for pest or weed control at 400 ppm: Pyricularia oryzae, foliar, read-out: RICE BLAST, Test 1, foliar spray on rice, disease control rating at 400 ppm / 100 ppm; for RICE BLAST: disease control rating, foliar spray on rice, 400 ppm (+++ at 100 ppm)
[11] = test system: Puccinia recondita tritici (leaf rust); assay: Test 1 greenhouse foliar spray screen, leaf rust on wheat; conditions: for pest or weed control at 400 ppm: Puccinia recondita, foliar, Test 1, foliar spray on wheat, disease control rating at 400 ppm / 100 ppm; for LEAF RUST: disease control rating, foliar spray on wheat, 400 ppm (+++ at 100 ppm)
corn rootworm = assay: Mite/insect screen, CRW; conditions: percent mortality, read-out: CRW RESULTS %
Procedure, shortened: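 Read-out: % mortality after standard exposure. Formulation: acetone/alcohol (50:50) with emulsifiers at 23 g and 13 g per liter, water-diluted to final test levels.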

[12] = foliar, rate 200 ppm, foliar spray on squash
[13] = foliar, rate 400 ppm, foliar spray on squash

Fc1cccc2c(OCCc3cccc(Cl)c3)ccnc12 [Example 201, 4-[2-(3-chlorophenyl)ethoxy]-8-fluoroquinoline]
pest or weed control at 400 ppm [1]: 90 to 100%
activity against downy mildew ([1]; summary statement in the description): particularly excellent activity
pest or weed control at 400 ppm [2]: 90 to 100%
pest or weed control at 400 ppm [3]: 90 to 100%
pest or weed control at 400 ppm [4]: 0 to 19%
mortality at 200 ppm [5, 12]: 0%
mortality at 400 ppm [5, 13]: 0%
mortality at 200 ppm [6, 12]: 100%
mortality at 400 ppm [6, 13]: 100%
pest or weed control at 400 ppm [7]: 90 to 100%
pest or weed control at 400 ppm [8]: 20 to 89%
mortality at 200 ppm [9, 12]: 80%
mortality at 400 ppm [9, 13]: 80%
activity as miticides [9]: particularly excellent activity
pest or weed control at 400 ppm [10]: 20 to 89%
pest or weed control at 400 ppm [11]: 90 to 100%
mortality at 12 ppm (corn rootworm; CRW rate 12.00 ppm): 0%
mortality at 24 ppm (corn rootworm; CRW rate 24.00 ppm): 0%

Fc1cccc2c(NCCc3ccc(I)cc3)ccnc12 [Example 11, 8-fluoro-N-[2-(4-iodophenyl)ethyl]-4-quinolinamine]
DOWN MDEW [1]: ++ (90-100% control at 400 ppm)
LEAF BLOT [2]: - (0-19% control at 400 ppm)
LEAF SPOT [3]: +++ (90-100% control at 100 ppm)
GRAY MOLD [4]: - (0-19% control at 400 ppm)
mortality at 200 ppm ([5]; SAW, SM & MA RATE 200 PPM): 80%
mortality at 400 ppm ([5]; SAW, SM & MA RATE 400 PPM): 100%
mortality at 200 ppm ([6]; SAW, SM & MA RATE 200 PPM): 0%
mortality at 400 ppm ([6]; SAW, SM & MA RATE 400 PPM): 0%
POWD MDEW [7]: - (0-19% control at 400 ppm)
APPL SCAB [8]: - (0-19% control at 400 ppm)
mortality at 200 ppm ([9]; SAW, SM & MA RATE 200 PPM): 0%
mortality at 400 ppm ([9]; SAW, SM & MA RATE 400 PPM): 0%
activity as miticides [9]: particularly excellent activity
RICE BLAST [10]: ++ (90-100% control at 400 ppm)
LEAF RUST [11]: +++ (90-100% control at 100 ppm)
mortality at 12 ppm (corn rootworm; CRW RATE 12.00 PPM): 0%
mortality at 24 ppm (corn rootworm; CRW RATE 24.00 PPM): 60%

Cc1ccc(CCOc2ccnc3cc(F)ccc23)cc1 [Example 235, 7-fluoro-4-[2-(4-methylphenyl)ethoxy]quinoline]
pest or weed control at 400 ppm [1]: 20 to 89%
pest or weed control at 400 ppm [2]: 20 to 89%
pest or weed control at 400 ppm [3]: 0 to 19%
pest or weed control at 400 ppm [4]: 0 to 19%
mortality at 200 ppm [5, 12]: 80%
mortality at 400 ppm [5, 13]: 0%
mortality at 200 ppm [6, 12]: 0%
mortality at 400 ppm [6, 13]: 50%
pest or weed control at 400 ppm [7]: 20 to 89%
pest or weed control at 400 ppm [8]: 0 to 19%
mortality at 200 ppm [9, 12]: 0%
mortality at 400 ppm [9, 13]: 0%
pest or weed control at 400 ppm [10]: 90 to 100%
pest or weed control at 400 ppm [11]: 90 to 100%
mortality at 12 ppm (corn rootworm; CRW rate 12.00 ppm): 0%
mortality at 24 ppm (corn rootworm; CRW rate 24.00 ppm): 0%

Fc1cccc2c(NCCC3COc4ccccc4O3)ccnc12 (stereo not drawn) [Example 174, N-[2-(2,3-dihydro-1,4-benzodioxin-2-yl)ethyl]-8-fluoro-4-quinolinamine]
DOWN MDEW [1]: +++ (90-100% control at 100 ppm)
LEAF BLOT [2]: + (20-89% control at 400 ppm)
LEAF SPOT [3]: - (0-19% control at 400 ppm)
GRAY MOLD [4]: - (0-19% control at 400 ppm)
mortality at 200 ppm [5, 12]: 0%
mortality at 200 ppm [6, 12]: 0%
POWD MDEW [7]: + (20-89% control at 400 ppm)
APPL SCAB [8]: - (0-19% control at 400 ppm)
mortality at 200 ppm [9, 12]: 0%
RICE BLAST [10]: + (20-89% control at 400 ppm)
LEAF RUST [11]: ++ (90-100% control at 400 ppm)
mortality at 12 ppm (corn rootworm; CRW rate 12.00 ppm): 0%

Fc1cc(F)c2nccc(NCCc3cccs3)c2c1 [Example 149, 6,8-difluoro-N-[2-(2-thienyl)ethyl]-4-quinolinamine]
DOWN MDEW [1]: ++ (90-100% control at 400 ppm)
LEAF BLOT [2]: + (20-89% control at 400 ppm)
LEAF SPOT [3]: +++ (90-100% control at 100 ppm)
GRAY MOLD [4]: - (0-19% control at 400 ppm)
mortality at 200 ppm ([5]; SAW, SM & MA RATE 200 PPM): 0%
mortality at 200 ppm ([6]; SAW, SM & MA RATE 200 PPM): 0%
POWD MDEW [7]: + (20-89% control at 400 ppm)
APPL SCAB [8]: - (0-19% control at 400 ppm)
mortality at 200 ppm ([9]; SAW, SM & MA RATE 200 PPM): 0%
RICE BLAST [10]: + (20-89% control at 400 ppm)
LEAF RUST [11]: ++ (90-100% control at 400 ppm)
mortality at 12 ppm (corn rootworm; CRW RATE 12.00 PPM): 0%
